Measurements: PubChem BioAssay (NCI)
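Results reflect a 48-hour exposure of cells in 96-well plates to compound at five concentrations. Here, GI50 denotes the concentration required for 50% inhibition of growth. TGI marks complete inhibition of growth.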

Key:
Test in all cases: NCI-60 cell line screen, 48 h
[1] = system: UO-31 renal
[2] = system: NCI-H522 lung
[3] = system: UACC-257 melanoma
[4] = system: HT29 colon
[5] = system: T-47D breast
[6] = system: RPMI-8226 leukemia
[7] = system: HOP-62 NSCLC
[8] = system: NCI-H23 lung
[9] = system: SF-539 CNS
[10] = system: SK-MEL-5 melanoma
[11] = system: SK-MEL-28 melanoma
[12] = system: MOLT-4 leukemia
[13] = system: K-562 leukemia
[14] = system: HCT-15 colon
[15] = system: SNB-19 CNS
[16] = system: HCT-116 colon
[17] = system: UACC-62 melanoma
[18] = system: PC-3 prostate
[19] = system: 786-0 renal
[20] = system: OVCAR-3 ovarian
[21] = system: NCI/ADR-RES ovarian
[22] = system: SR leukemia
[23] = system: OVCAR-8 ovarian
[24] = system: MCF7 breast
[25] = system: HL-60(TB) leukemia
[26] = system: M14 melanoma
[27] = system: MDA-MB-435
[28] = system: SK-MEL-2 melanoma
[29] = system: SN12C renal
[30] = system: OVCAR-5 ovarian
[31] = system: KM12 colon
[32] = system: CCRF-CEM leukemia
[33] = system: MDA-MB-231 breast
[34] = system: SW-620 colon
[35] = system: SF-268 CNS
[36] = system: U251 CNS
[37] = system: SNB-75 CNS
[38] = system: NCI-H460 lung
[39] = system: MALME-3M melanoma
[40] = system: A498 renal
[41] = system: HCC-2998 colon
[42] = system: RXF 393 renal
[43] = system: TK-10 renal
[44] = system: DU-145 prostate
[45] = system: HS 578T breast
[46] = system: CAKI-1 renal
[47] = system: SK-OV-3 ovarian
[48] = system: ACHN renal
[49] = system: BT-549 breast
[50] = system: EKVX NSCLC
[51] = system: HOP-92 NSCLC
[52] = system: OVCAR-4 ovarian
[53] = system: COLO 205 colon
[54] = system: NCI-H226 lung
[55] = system: SF-295 CNS
[56] = system: IGROV1 ovarian
[57] = system: A549 NSCLC
[58] = system: LOX IMVI melanoma

CN1C(=O)C2(c3ccccc31)N(c1ccc(Cl)cc1)C(=O)C2(c1ccccc1)c1ccccc1 (stereo unspecified)
GI50 [1]: 27.9 µM
TGI [1]: > 100 µM
GI50 [2]: 10 µM
TGI [2]: > 100 µM
GI50 [3]: 47.6 µM
TGI [3]: > 100 µM
GI50 [4]: 11 µM
TGI [4]: > 100 µM
GI50 [5]: 6.29 µM
TGI [5]: > 100 µM
GI50 [6]: 6.25 µM
TGI [6]: > 100 µM
GI50 [7]: > 100 µM
TGI [7]: > 100 µM
GI50 [8]: 64.7 µM
TGI [8]: > 100 µM
GI50 [9]: > 100 µM
TGI [9]: > 100 µM
GI50 [10]: 54.5 µM
TGI [10]: > 100 µM
GI50 [11]: > 100 µM
TGI [11]: > 100 µM
GI50 [12]: 9.86 µM
TGI [12]: > 100 µM
GI50 [13]: 4.28 µM
TGI [13]: 95.3 µM
GI50 [14]: > 100 µM
TGI [14]: > 100 µM
GI50 [15]: 22.4 µM
TGI [15]: > 100 µM
GI50 [16]: 9.57 µM
TGI [16]: > 100 µM
GI50 [17]: 39.7 µM
TGI [17]: > 100 µM
GI50 [18]: 5.63 µM
TGI [18]: > 100 µM
GI50 [19]: > 100 µM
TGI [19]: > 100 µM
GI50 [20]: 20.2 µM
TGI [20]: > 100 µM
GI50 [21]: 34.7 µM
TGI [21]: > 100 µM
GI50 [22]: 41.7 µM
TGI [22]: > 100 µM
GI50 [23]: > 100 µM
TGI [23]: > 100 µM
GI50 [24]: 39.6 µM
TGI [24]: > 100 µM
GI50 [25]: 3.42 µM
TGI [25]: 16.5 µM
GI50 [26]: 45.3 µM
TGI [26]: > 100 µM
GI50 [27]: > 100 µM
TGI [27]: > 100 µM
GI50 [28]: 35.6 µM
TGI [28]: > 100 µM
GI50 [29]: 94.3 µM
TGI [29]: > 100 µM
GI50 [30]: > 100 µM
TGI [30]: > 100 µM
GI50 [31]: > 100 µM
TGI [31]: > 100 µM
GI50 [32]: 9.72 µM
TGI [32]: > 100 µM
GI50 [33]: 13.4 µM
TGI [33]: > 100 µM
GI50 [34]: > 100 µM
TGI [34]: > 100 µM
GI50 [35]: > 100 µM
TGI [35]: > 100 µM
GI50 [36]: 45.5 µM
TGI [36]: > 100 µM
GI50 [37]: 17.8 µM
TGI [37]: 90.5 µM
GI50 [38]: 52.2 µM
TGI [38]: > 100 µM
GI50 [39]: 50.8 µM
TGI [39]: > 100 µM
GI50 [40]: 34.3 µM
TGI [40]: > 100 µM
GI50 [41]: 66 µM
TGI [41]: > 100 µM
GI50 [42]: 64.6 µM
TGI [42]: > 100 µM
GI50 [43]: > 100 µM
TGI [43]: > 100 µM
GI50 [44]: 99 µM
TGI [44]: > 100 µM
GI50 [45]: 21.4 µM
TGI [45]: > 100 µM
GI50 [46]: > 100 µM
TGI [46]: > 100 µM
GI50 [47]: > 100 µM
TGI [47]: > 100 µM
GI50 [48]: 78.4 µM
TGI [48]: > 100 µM
GI50 [49]: > 100 µM
TGI [49]: > 100 µM
GI50 [50]: 53.3 µM
TGI [50]: > 100 µM
GI50 [51]: 5.62 µM
TGI [51]: 49.1 µM
GI50 [52]: 5.1 µM
TGI [52]: > 100 µM
GI50 [53]: 37.6 µM
TGI [53]: > 100 µM
GI50 [54]: > 100 µM
TGI [54]: > 100 µM
GI50 [55]: 11 µM
TGI [55]: > 100 µM
GI50 [56]: > 100 µM
TGI [56]: > 100 µM
GI50 [57]: 18.5 µM
TGI [57]: > 100 µM
GI50 [58]: > 100 µM
TGI [58]: > 100 µM
